Reference: patent US10787413B2, “Derivatives of curcuminoids and use thereof as an anticancer agent” (CHINA MEDICAL UNIVERSITY, priority 2016, dated 2020)
Read-outs that look alike come from different tables or passages of the source.

What was measured:
[1] = system: MDA-MB-231 breast cancer cell; assay: MTT cell viability assay, MDA-MB-231 breast cancer cell; assay type: cell-based, human; conditions: Homo sapiens
Experimental: (§1) Cell viability was evaluated by measuring the reduction in MTT to yield blue formazan. Cells were cultured in 96-well plates, allowed to attach overnight, and then treated with compounds. After treatment, MTT solution (1 mg/ml) was added to each well, and plates were incubated for another 4 h.

[2] = system: HCT-116 colon cancer cell; assay: MTT cell viability assay, HCT-116 colon cancer cell; assay type: cell-based; conditions: Homo sapiens
Experimental: as §1, with “h. Medium were removed, blue formazan was dissolved in DMSO, and the absorbance was read at 570 nm^20.” for “h.”

PC3 prostate cancer cell = assay: MTT cell viability assay, PC3 prostate cancer cell; assay type: cell-based
Experimental: as §1, with “h. Medium were removed, blue formazan was dissolved in DMSO, and the absorbance was read at 570 nm^20.” for “h.”

T47D = assay: Cell viability, T47D breast cancer cells; assay type: cell-based; conditions: Homo sapiens; T47D (ER+/PR+), treated for 24 h
Experimental: as §1, with “h. Medium were removed, blue formazan was dissolved in DMSO, and the absorbance was read at 570 nm^20.” for “h.”

MCF-7 = assay: Cell viability, MCF-7 breast cancer cells; assay type: cell-based; conditions: Homo sapiens, MCF7; MCF-7 (ER+/PR+), treated for 24 h
Experimental: as §1, with “h. Medium were removed, blue formazan was dissolved in DMSO, and the absorbance was read at 570 nm^20.” for “h.”

MDA-MB-453 = assay: Cell viability, MDA-MB-453 breast cancer cells; assay type: cell-based; conditions: Homo sapiens; MDA-MB-453 (Her-2+), treated for 24 h
Experimental: as §1, with “h. Medium were removed, blue formazan was dissolved in DMSO, and the absorbance was read at 570 nm^20.” for “h.”

BT-474 = assay: Cell viability, BT-474 breast cancer cells; assay type: cell-based; conditions: Homo sapiens; BT-474 (Her-2+), treated for 24 h
Experimental: as §1, with “h. Medium were removed, blue formazan was dissolved in DMSO, and the absorbance was read at 570 nm^20.” for “h.”

SKBR-3 = assay: Cell viability, SKBR-3 breast cancer cells; assay type: cell-based; conditions: Homo sapiens, SK-BR-3; SKBR-3 (Her-2+), treated for 24 h
Experimental: as §1, with “h. Medium were removed, blue formazan was dissolved in DMSO, and the absorbance was read at 570 nm^20.” for “h.”

MDA-MB-468 = assay: Cell viability, MDA-MB-468 breast cancer cells; assay type: cell-based; conditions: Homo sapiens; MDA-MB-468 (Triple negative), treated for 24 h
Experimental: as §1, with “h. Medium were removed, blue formazan was dissolved in DMSO, and the absorbance was read at 570 nm^20.” for “h.”

MDA-MB-157 = assay: Cell viability, MDA-MB-157 breast cancer cells; assay type: cell-based; conditions: Homo sapiens; MDA-MB-157 (Triple negative), treated for 24 h
Experimental: as §1, with “h. Medium were removed, blue formazan was dissolved in DMSO, and the absorbance was read at 570 nm^20.” for “h.”

HS-578T = assay: Cell viability, HS-578T breast cancer cells; assay type: cell-based; conditions: Homo sapiens; HS-578T (Triple negative), treated for 24 h
Experimental: as §1, with “h. Medium were removed, blue formazan was dissolved in DMSO, and the absorbance was read at 570 nm^20.” for “h.”

[3] = system: Doxorubicin-resistant MDA-MB-231; assay: Cell viability, Doxorubicin-resistant MDA-MB-231; assay type: cell-based; conditions: Doxorubicin-resistant MDA-MB-231, treated for 24 h
Experimental: as §1, with “h. Medium were removed, blue formazan was dissolved in DMSO, and the absorbance was read at 570 nm^20.” for “h.”

MDA-MB-231 Xenograft = assay: In vivo antitumor activity, MDA-MB-231 Xenograft nude mice model; conditions: treated vs untreated control group during antitumor evaluation
Experimental: Female nu/nu mice (5 weeks old) were from National Laboratory Animal Center, Taipei, Taiwan. Mice were maintained under the procedures and guidelines from the Institutional Animal Care and Use Committee of the National Health Research Institutes, Taipei, Taiwan. All experiments were supervised under the Institutional Animal Care and Use Committee, China Medical University, Taichung, Taiwan. MDA-MB-231 breast cancer cells (5×10^6 cells per mouse) were suspended in 0.1 ml of Matrigel solution (50% (v/v) Matrigel in PBS) and inoculated into the mammary fat pads of the mice. […] Compounds was administered P.O. once every day for 32 days. Tumor size and mouse body weight were measured once every 4 days, and tumor volume (mm3) was calculated using the equation: length×(width)^2×0.5. At the end of experiments, mice were sacrificed and tumor nodules were dissected and weighed.

## COc1cc(/C=C/C(=O)/C=C(O)/C=C/c2ccc(O)c(OC)c2)ccc1O [Curcumin, (E,E)-1,7-bis (4-hydroxy-3-methoxyphenyl)-1,6-heptadiene-3,5-dione]
[1]; MDA-MB-231, 24 h, read-out: IC50 24 hours
  IC50: 38.8 ± 3.35 µM
[1]; MDA-MB-231, 48 h, read-out: IC50 48 hours
  IC50: 22.1 ± 2.97 µM
[1]; MDA-MB-231, treated 72 hours, read-out: IC50 72 hours
  IC50: 16.2 µM
[2]; HCT-116, treated 24 hours, read-out: IC50 24 hours
  IC50: 78 ± 11.2 µM
[2]; HCT-116, treated 48 hours, read-out: IC50 48 hours
  IC50: 26.3 ± 1.38 µM
[2]; HCT-116, treated 72 hours, read-out: IC50 72 hours
  IC50: 13.8 ± 0.5 µM
PC3 prostate cancer cell; PC-3, treated 24 hours, read-out: IC50 24 hours
  IC50: 57.1 ± 10.1 µM
PC3 prostate cancer cell; PC-3, treated 48 hours, read-out: IC50 48 hours
  IC50: 30 ± 0.72 µM
PC3 prostate cancer cell; PC-3, treated 72 hours, read-out: IC50 72 hours
  IC50: 18.8 ± 1.31 µM
T47D
  IC50: 47.9 ± 3.9 µM
MCF-7
  IC50: 42.9 ± 2.36 µM
MDA-MB-453
  IC50: 32.4 ± 1.41 µM
BT-474
  IC50: 30.1 ± 1.42 µM
SKBR-3
  IC50: 42.8 ± 1.47 µM
MDA-MB-468
  IC50: 42.9 ± 2.35 µM
MDA-MB-157
  IC50: 40.4 ± 3.26 µM
HS-578T
  IC50: 55.5 ± 1.39 µM
[3]
  IC50: 58.6 ± 4.03 µM
[3]; Homo sapiens, MDA-MB-231, 24 h
  IC50: 57.6 µM
MDA-MB-231 Xenograft
  body weight, behavior change and blood chemistry (serology detection): no significant difference
